Test results as given in article PMC6614837 (Nucleic Acids Research, 2019).

Key:
[1] = target: T1, RNase P holoenzyme from Thermotoga maritima (Thermotoga maritima, UniProt Q9X1H4); experiment: Real-time fluorescence-based RNase P activity assay with bipartite pre-tRNA substrate; format: biochemical; conditions: fluorescent bipartite pre-tRNA substrate, holoenzyme 33 nM, 10% PEG 200 in place of DMSO
T1 construct: made in house
T1 sequence (Q9X1H4 1-117): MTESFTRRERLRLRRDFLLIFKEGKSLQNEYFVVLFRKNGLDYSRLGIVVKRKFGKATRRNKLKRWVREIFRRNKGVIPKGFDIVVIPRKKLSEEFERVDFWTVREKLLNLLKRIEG
Experimental: The reconstitution of the RNase P holoenzyme was performed as described in ([40],[19]). This protocol produces a homogeneous and functional ribozyme that can be crystallized by mixing P RNA and P protein in a 1:1.1 molar ratio in 1× TH buffer (33 mM Tris–HCl, 66 mM HEPES, pH 7.4) and 400 mM ammonium acetate (AmOAc). The mixture was heated to 95°C for 2 min in a water bath, then chilled on ice for 2 min, after which MgCl2 was added to a final concentration of 100 mM. […] This higher concentration was used in all experiments described herein. The holoenzyme was further incubated at 50°C for 10 min and 37°C for 40 min. The final concentration of holoenzyme was 333 nM (35.6 μg/ml of P RNA and 4.7 μg/ml of P protein).
The bipartite pre-tRNA substrate derived from pre-tRNA^Phe from T. maritima (Supplementary Figure S13) was designed for the ease of chemical synthesis and conceived from the fact that the anticodon loop is not required for RNase P recognition (Reiter et al.). As for the Mh substrate, fluorescent bipartite pre-tRNA was coupled to Black Hole Quencher 1 (BHQ1) at the 5′-end of the 5′ oligo, and to Alexa Fluor 488 at the 3′-end of the 3′ oligo (see Supplementary Table S1). The probes were purchased from Integrated DNA Technologies (IDT). A requested scale of 250 nmol yielded 27.4 nmol (0.36 mg) for the 5′ oligo and 3.8 nmol (50 μg) for the 3′ fluorescent oligo. Before use, the probes were diluted from a 100 μM stock (dissolved in water) and assembled by mixing and heating to 3.6 μM in activity buffer L (Tris–HCl pH 7.4 33 mM, HEPES 66 mM, 100 mM AmOAc and 10 mM MgCl2).
Reactions were performed in a total volume of 20 μl. Pipetting was done by hand using multichannel pipettes. First, an 18 μl reaction mixture containing 16.5 μl of activity buffer (H for Mh or L supplemented with 10% PEG 200 for bipartite pre-tRNA) and 270 nM (Mh) or 135 nM (bipartite pre-tRNA) (1.5 or 0.7 μl of the 3.6 μM stock) of the fluorescent substrate probe was pre-incubated on ice for at least 5 m in a black polystyrene 384-well microtiter microplate with a flat transparent bottom (Corning ref 3540). The holoenzyme was then added at a final concentration of 33 nM (2 μl of a 333 nM stock) in 1× TH buffer and mixed. Kinetic activity was monitored in a Synergy MX Multimode Detector (BioTek) at 37°C with rapid agitation. At least 20 readings were taken per well every 15 s. The probe was excited at 485 nm, and its emission was monitored at 535 nm with an integration time of 1 s. From the plots of relative fluorescent units (RFU) versus time, linear regression was used to determine the slopes in the linear portion of the curves, using at least 12 data points to obtain initial velocities. Non-linear fitting to obtain the Michaelis–Menten parameters was performed using GraphPad Prism® 6.01 software. […]

[2] = test system: P RNA; experiment: Biolayer interferometry binding to immobilized P RNA; parameters: species or system T. maritima; conditions: BLI, P RNA on SSA biosensors via biotinylated oligonucleotide
Experimental: Real-time binding assays of the holoenzyme, P RNA, P protein, the substrate minihelix and the 5′-leader to individual compounds were performed by biolayer interferometry using an Octet RED96 system (ForteBio). For the holoenzyme or P RNA, a 5′ biotinylated RNA oligonucleotide with the sequence 5′biotin-CAUUCCAGACGAU was immobilized on Super Streptavidin (SSA) biosensors. Then, a modified P RNA or holoenzyme was added. The P RNA modification consisted of a sequence with part of the P1 stem sequence complementary to the biotinylated oligonucleotide (AUCGUCUGGA) (Supplementary Figure S23A). P1 is far from the active site or other regions involved in specific interactions (Supplementary Figure S23B) ([19]). The activity of this construct was indistinguishable from the wild-type holoenzyme. Alternatively, the holoenzyme was immobilized through the His-tagged P protein from T. maritima at 0.05 mg/ml (3.4 μM) on Ni-NTA biosensors. Control biosensors were used to subtract non-specific binding of compounds to the biosensor surface. All assay steps (immobilization, wash, baseline, association, and dissociation) were performed in 20 mM HEPES pH 7.4, 100 mM ammonium acetate, 10 mM MgCl2, 2.5% DMSO. The assays were performed on black bottom 96-well microplates (Greiner Bio-One 655209) in a total volume of 200 μl, at 30°C with orbital shaking at 1000 rpm. Experiments were controlled with the software Data Acquisition 8.2 (ForteBio, Inc.). Kinetic binding parameters were calculated using Data Analysis 8.2 (ForteBio, Inc.). After subtraction of reference biosensors, the binding curves were aligned to the X- and Y-axis and the association-dissociation inter-step curve in order to get a common baseline for the association and dissociation phases.
Figure 3. The inhibitors purpurin and hematein bind to the holoenzyme. (A) Top. […] Bottom. […] (B) The relative affinities of the inhibitors for the P RNA or the holoenzyme differ. Binding sensorgrams obtained by biolayer interferometry (BLI). […]

Compound	IC50 [1] [µM]	Binding to P RNA [2]
O=C1C=C2CC3(O)COc4c(ccc(O)c4O)C3=C2C=C1O (centres unmarked) [Hematein, 3,4,6a,10-tetrahydroxy-6a,7-dihydroindeno[2,1-c]chromen-9(6H)-one]	87.9 ± 19.7	binds only slightly to P RNA
O=C1C=CC(=O)c2c(O)cccc21 [Juglone, 5-hydroxy-1,4-naphthoquinone]	11.9 ± 1.7	
O=C1c2ccccc2C(=O)c2c(O)c(O)cc(O)c21 [Purpurin, 1,2,4-trihydroxyanthraquinone]	13.1 ± 2.3	does not bind to P RNA
